{"source": "BindingDB's records for doi:10.1021/jm00167a014", "about": "(Merrell Dow Research Institute, 1990)", "molecular_target": "Peroxisomal N(1)-acetyl-spermine/spermidine oxidase (Rattus norvegicus)", "test": "Tested for in vitro binding affinity against polyamine oxidase after intraperitoneal administration in the rat liver", "data": [{"smiles": "C=C=CCNCCCNCCCCCCCCNCCCNCC=C=C", "values": [{"measurement": "Ki", "result": 2500, "unit": "nM"}]}, {"smiles": "C=C=CCNCCCNCCCNCC=C=C", "values": [{"measurement": "Ki", "result": 3000, "unit": "nM"}]}]}
